Values quoted from earlier work in patent US10258574B2, “Method of preparing itraconazole preparation” (CHANGZHOU PHARMACEUTICAL FACTORY CO., LTD., priority 2015, dated 2019).

Settings: rat; clinical relevance yet unclear

## 2-hydroxypropyl-β-cyclodextrin
  carcinogenicity finding: cause pancreatic cancer
